Laboratory results taken from ChEMBL document CHEMBL1151125, “Constituents of Michelia Rajaniana. Two new germacranolide amides” (1988).

Columns and labels:
Type in all cases: functional
Details in all cases: read-out: ED50 (the source's name)
MCF7 = test: Cytotoxicity against human MCF7 cells
A549 = test: Cytotoxicity against human A549 cells
HT-29 = test: Cytotoxicity against human HT-29 cells

Measured: EC50

CC(=O)NC[C@@H]1C(=O)O[C@H]2[C@H]1[C@@H](O)C/C(C)=C/CC[C@@]1(C)O[C@@H]21
> 100 mg/L: all assays above

CC(=O)NC[C@@H]1C(=O)O[C@H]2[C@H]1CC/C(C)=C/CC[C@@]1(C)O[C@@H]21
> 100 mg/L: all assays above
